Patent EP1209158A1, “Substituted beta-carbolines” (Aventis Pharma Deutschland GmbH, priority 2000, dated 2002)
Counter-ions that a name gives are not always drawn.

Experiments:
[1] = tested on: mouse heterotopic cardiac transplant (BALB/c->C57BL/6 or B6/129); assay: Mouse heterotopic cardiac transplant model; assay type: in vivo; settings: oral administration, 25 mg/kg/day for 14 days, starting at transplantation
From the text: In the mouse heterotopic cardiac transplant model across full histocompatibility barriers (BALB/c->C57BL/6 or B6/129), graft survival is typically limited to 7.3 ± 0.4 days (mean ± SD, […]) (see for example in Hancock WW, Sayegh MH, Zheng XG, Peach R, Linsley PS, Turka LA. Costimulatory function and expression of CD40-ligand, CD80 and CD86 or in vascularized murine cardiac allograft rejection. Proc Natl Acad Sci (USA) 93, 1996, 13967-13972; and Hancock W W, Buelow R, Sayegh MH, Turka LA. Antibody-induced transplant arteriosclerosis is prevented by graft expression of antioxidant and anti-apoptotic genes. Nature Med 4, 1998, 1392-1396).
The effects of oral administration of the compounds according to examples 49 and 60 were tested using 25 mg/kg/day for 14 days, starting at transplantation in said animal model. Whereas grafts in animals receiving the carrier, methylcellulose, rejected by 7 days (6.7 ± 0.8), grafts in compound 49-treated mice survived around 15 days (15.3 ± 0.6), and grafts in those given compound 60 survived for 20 days (20 ± 1). Current immunosuppressive therapies used in transplantation have limited efficacy and/or considerable toxicity.

IκBα-kinase complex = biological target: T1, IκBα-kinase complex (Homo sapiens, UniProt O14920+O15111); assay: biochemical; settings: activated kinase complex from HeLa S3 cell-extracts S100 fraction; 30 minutes pre-incubation at 25°C; biotinylated peptide substrate; read-out: IkB-kinase IC50
T1 construct: IKBα kinase complex was prepared by first diluting 10 mL of HeLa S3 cell-extracts S100 fraction; endogenous in cells; host or cells: HeLa S3 (S100 fraction, 40% ammonium sulfate cut, Superose-6 fractions at about 670 kDa)
T1 sequence (O14920 whole entry): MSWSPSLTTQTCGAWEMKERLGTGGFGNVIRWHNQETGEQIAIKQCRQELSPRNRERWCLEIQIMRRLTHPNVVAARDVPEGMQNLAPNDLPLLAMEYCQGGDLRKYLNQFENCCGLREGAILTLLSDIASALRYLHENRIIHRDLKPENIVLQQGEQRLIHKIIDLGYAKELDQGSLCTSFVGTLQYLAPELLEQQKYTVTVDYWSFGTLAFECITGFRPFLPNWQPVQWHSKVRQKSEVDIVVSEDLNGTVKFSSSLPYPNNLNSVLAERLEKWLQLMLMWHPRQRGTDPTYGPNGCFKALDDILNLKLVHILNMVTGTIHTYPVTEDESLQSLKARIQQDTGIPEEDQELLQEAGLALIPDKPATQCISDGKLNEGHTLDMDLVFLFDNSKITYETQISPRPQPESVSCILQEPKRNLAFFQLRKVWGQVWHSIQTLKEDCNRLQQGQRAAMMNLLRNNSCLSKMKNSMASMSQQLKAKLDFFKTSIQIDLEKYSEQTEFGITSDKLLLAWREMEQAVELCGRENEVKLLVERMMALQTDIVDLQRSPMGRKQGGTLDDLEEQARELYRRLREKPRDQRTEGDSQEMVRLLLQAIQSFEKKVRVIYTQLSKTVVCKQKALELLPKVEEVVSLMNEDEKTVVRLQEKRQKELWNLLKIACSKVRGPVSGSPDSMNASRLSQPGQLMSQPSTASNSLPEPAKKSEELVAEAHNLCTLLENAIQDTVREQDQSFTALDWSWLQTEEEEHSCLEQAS
T1 sequence (O15111 whole entry): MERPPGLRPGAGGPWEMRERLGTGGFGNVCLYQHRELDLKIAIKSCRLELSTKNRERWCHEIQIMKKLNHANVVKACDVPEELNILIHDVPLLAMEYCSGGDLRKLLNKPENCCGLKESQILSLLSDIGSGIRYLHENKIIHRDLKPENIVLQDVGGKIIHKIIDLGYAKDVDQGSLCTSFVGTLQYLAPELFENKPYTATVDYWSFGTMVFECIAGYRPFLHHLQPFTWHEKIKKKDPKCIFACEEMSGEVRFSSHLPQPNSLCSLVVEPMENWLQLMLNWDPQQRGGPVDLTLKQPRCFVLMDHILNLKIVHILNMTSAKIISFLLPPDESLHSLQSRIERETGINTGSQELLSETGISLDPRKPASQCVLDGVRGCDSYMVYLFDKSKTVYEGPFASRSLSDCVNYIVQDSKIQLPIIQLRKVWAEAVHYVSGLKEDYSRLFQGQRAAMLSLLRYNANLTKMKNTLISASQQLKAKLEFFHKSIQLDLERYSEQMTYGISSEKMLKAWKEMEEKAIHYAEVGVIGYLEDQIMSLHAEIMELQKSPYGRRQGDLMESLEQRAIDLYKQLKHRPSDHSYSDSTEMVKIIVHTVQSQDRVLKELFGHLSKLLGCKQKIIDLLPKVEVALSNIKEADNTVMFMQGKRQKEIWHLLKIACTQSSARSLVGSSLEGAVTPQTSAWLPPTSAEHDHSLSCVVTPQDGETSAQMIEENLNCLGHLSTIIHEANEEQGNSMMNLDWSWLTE
T1 sequence (Q9Y6K9 whole entry partner): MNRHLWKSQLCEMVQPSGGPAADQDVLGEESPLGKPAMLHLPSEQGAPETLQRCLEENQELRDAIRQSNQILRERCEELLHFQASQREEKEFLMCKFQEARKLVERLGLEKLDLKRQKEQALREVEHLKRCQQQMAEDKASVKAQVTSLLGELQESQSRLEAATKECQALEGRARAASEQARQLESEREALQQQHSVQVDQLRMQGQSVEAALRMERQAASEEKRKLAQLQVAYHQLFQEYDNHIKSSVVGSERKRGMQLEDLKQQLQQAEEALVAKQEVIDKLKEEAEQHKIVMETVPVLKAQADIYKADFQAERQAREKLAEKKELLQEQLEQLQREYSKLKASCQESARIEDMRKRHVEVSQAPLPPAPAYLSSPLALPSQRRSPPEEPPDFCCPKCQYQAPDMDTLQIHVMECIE

Compound	graft survival [1] [days]	IC50 (IκBα-kinase complex) [nM]
7-chloro-9-(4-fluorobenzoylamino)-β-carboline trifluoroacetate [Example 49]	15.3 ± 0.6	–
7-chloro-9-(Acetyl-methylamino)-β-carboline trifluoroacetate [Example 48]	–	4000
7-chloro-9-(methylamino)-β-carboline trifluoroacetate [Example 43]	–	1000
CC(=O)c1nccc2c1[nH]c1cc(Br)ccc12 [Example 2, 1-acetyl-7-bromo-β-carboline]	–	400
Fc1ccc2c(c1)[nH]c1cnccc12 [Example 3, 7-fluoro-β-carboline]	–	1000
CC(C)c1ccc2c(c1)[nH]c1cnccc12 [Example 4, 7-isopropyl-β -carboline hydrochloride]	–	2500
N#Cc1ccc2c(c1)[nH]c1cnccc12 [Example 5, 7-cyano-β-carboline]	–	1000
O=[N+]([O-])c1ccc2c(c1)[nH]c1cnccc12 [Example 6, 7-nitro-β-carboline hydrochloride]	–	3000
O=C(O)c1ccc2c(c1)[nH]c1cnccc12 [Example 7, 7-carboxy-β-carboline trifluoroacetat]	–	65000
Brc1ccc2c3ccncc3n(Br)c2c1 [Example 8, 7,9-dibromo-β - carboline hydrochloride]	–	200
Clc1ccc2c3ccncc3n(Cl)c2c1 [Example 9, 7,9-dichloro-β-carboline]	–	200
CC(=O)c1nccc2c1[nH]c1cc(Cl)ccc12 [Example 13, 1-acetyl-7-chloro-β - carboline]	–	500
O=[N+]([O-])n1c2cnccc2c2ccc(Cl)cc21 [Example 14, 7-chloro-9-nitro-β-carboline]	–	4000
Nn1c2cnccc2c2ccc(Cl)cc21 [Example 15, 9-amino-7-chloro-β-carboline]	–	800
Cn1ccc2c3cccc(O)c3nc-2c1 [Example 23, 8-hydroxy-2-methyl-β-carboline]	–	22000
COc1ccc2c(c1)[nH]c1cnccc12 [Example 30, 7-methoxy-β - carboline]	–	5200
Fc1c(Cl)ccc2c1[nH]c1cnccc12 [Example 34, 7-chloro-8-fluoro-β - carboline]	–	1000
COc1ccc2c(c1)[nH]c1c(C)nccc12 [Example 35, 7-methoxy-1-methyl-β - carboline]	–	3500
Oc1nccc2c1[nH]c1cc(C(F)(F)F)ccc12 [Example 41, 1-hydroxy-7-trifluoromethyl-β-carboline]	–	2200
FC(F)(F)c1ccc2c(c1)[nH]c1cnccc12 [Example 42, 7-trifluoromethyl-β-carboline]	–	800
O=C(Nc1cc(Cl)cc2c1[nH]c1cnccc12)c1cccnc1 [Example 60, N-(6-Chloro-9H-β-carbolin-8-yl)-nicotinamide]	20 ± 1	–
